Read-outs that look alike come from different tables or passages of the source.
What was measured:
[1] = test system: HIV K103N mutant; design: method as in Sampah et al., 2011; details: ref Sampah et al., 2011; cited from earlier work
[2] = human, in vivo
Excerpt: In our work, we modeled metabolic autoinduction similarly to the model proposed by Zhu et al. ([2009]). We defined the term α as the ratio of the mean clearance on day 1 to the mean clearance at steady state (after autoinduction). […] For each virtual patient generated from the population pharmacokinetic model, the individual clearance at steady state was available and the clearance at day 1 was computed using CLi,t0 = α·CLi, SS. Zhu et al. ([2009]) proposed a model for time-dependent autoinduction that we used herein
(4) CLi(t)=CLi,t0+(CLi,SS-CLi,t0)·t-t0/(t-t0)+T50
where CLi(t) is the individual clearance rate at the time t and t0 is the time of the first EFV dose. CLi(0) and CLi, SS represent the clearance rates at day 1 and at steady state.

[3] = test system: HIV Y181C mutant; design: method as in Sampah et al., 2011; details: ref Sampah et al., 2011; cited from earlier work
[4] = in vivo; cited from earlier work
[5] = in vivo; cited from earlier work; remark: listed apart in the source
[6] = test system: wild-type HIV; design: method as in Shen et al., 2008; details: ref Shen et al., 2008, cited from earlier work
[7] = no reference given; cited from earlier work
[8] = test system: plasma proteins (human serum albumin and α-1-acid glycoprotein); details: cited from earlier work; for unbound fraction in human plasma (fu): ref Almond et al., 2005, Fayet et al., 2008, Burhenne et al., 2010, Avery et al., 2011, 2013a
[9] = cited from earlier work; for typical population clearance value: 70kg; for typical population clearance value / relative change in apparent oral clearance vs reference genotype: ref Dickinson et al. (2015)
[10] = design: method as in Mukonzo et al., 2009; details: healthy men, ref Mukonzo et al., 2009, cited from earlier work
[11] = test system: HIV G190S mutant; design: method as in Sampah et al., 2011; details: ref Sampah et al., 2011; cited from earlier work
[12] = cited from earlier work
[13] = genotype GG/TC or CC/CA or AA/CC
[14] = genotype GG/TC or CC/CA or AA/CT
[15] = genotype GG/TC or CC/CC/CT or TT
[16] = genotype GT/TC or CC/CA or AA/CC
[17] = genotype GT/TC or CC/CC/CT or TT

In the case of `O=C1Nc2ccc(Cl)cc2[C@@](C#CC2CC2)(C(F)(F)F)O1` [efavirenz], the “hill coefficient m as multiple of m(wt)” value [1] is given as 0.83·m(wt), the “α, ratio of mean clearance on day 1 to mean clearance at steady state” value [2] is given as 0.58 and the “hill coefficient m as multiple of m(wt)” value [3] is given as 0.9·m(wt). For the same compound, the “semen-to-plasma ratio of total EFV concentrations” value [4] was 3.4–5%, the “cervical fluid-to-plasma ratio of total concentrations” value [5] was 0.4% and the IC50 ([6]; corrected for protein binding) was 5.4 nM. The “hill coefficient m (± sd)” value [6] was 1.69 (±0.08), the LogP [7] was “≈ 4” and the “unbound fraction in human plasma (fu)” value [8] was no more than 1%. For the same compound, the “unbound fraction in human plasma (fu)” value ([8]; listed as EFV) was less than 1%, the “fu,plasma used for IC50 correction” value ([8]; value used to obtain IC50plasma) was 0.2% and the “typical population clearance value” ([9]; Missing genotype) was 8.7 L/h. For the same compound, the “typical population clearance value” [9, 13] was 9.0 L/h, the “typical population clearance value” [9, 14] was 11.4 L/h and the “typical population clearance value” ([9]; genotype GG/TC or CC/CC/CC) was 8.7 L/h. The “typical population clearance value” [9, 15] was 3.5 L/h, the “typical population clearance value” [9, 16] was 2.2 L/h and the “typical population clearance value” ([9]; genotype GT/TC or CC/CC/CC) was 5.0 L/h. The “typical population clearance value” [9, 17] was 4.6 L/h, the “typical population clearance value” ([9]; genotype GT/TT/CA or AA/CC) was 8.2 L/h and the “typical population clearance value” ([9]; genotype GT/TT/CA or AA/CT) was 8.4 L/h. The “typical population clearance value” ([9]; genotype GT/TT/CC/CC) was 8.9 L/h, the “typical population clearance value” ([9]; genotype GT/TT/CC/CT or TT) was 8.1 L/h and the “typical population clearance value” ([9]; genotype TT/TT/CA or AA/CC) was 5.2 L/h. The “typical population clearance value” ([9]; genotype TT/TT/CA or AA/CT) was 8.9 L/h, the “typical population clearance value” ([9]; genotype TT/TT/CC/CC) was 4.0 L/h and the “typical population clearance value” ([9]; genotype TT/TT/CC/CT or TT) was 4.1 L/h. The “relative change in apparent oral clearance vs reference genotype” value (shortened to “relative change”) ([9]; Missing genotype) was 0.73, the “relative change” value [9, 13] was 0.75 and the “relative change” value [9, 14] was 0.96. For the same compound, the “relative change” value ([9]; genotype GG/TC or CC/CC/CC) was 0.73, the “relative change” value [9, 15] was 0.30 and the “relative change” value [9, 16] was 0.18. For the same compound, the “relative change” value ([9]; genotype GT/TC or CC/CC/CC) was 0.42, the “relative change” value [9, 17] was 0.39 and the “relative change” value ([9]; genotype GT/TT/CA or AA/CC) was 0.69. The “relative change” value ([9]; genotype GT/TT/CA or AA/CT) was 0.71, the “relative change” value ([9]; genotype GT/TT/CC/CC) was 0.75 and the “relative change” value ([9]; genotype GT/TT/CC/CT or TT) was 0.68. The “relative change” value ([9]; genotype TT/TT/CA or AA/CC) was 0.44, the “relative change” value ([9]; genotype TT/TT/CA or AA/CT) was 0.75 and the “relative change” value ([9]; genotype TT/TT/CC/CC) was 0.33. The “relative change” value ([9]; genotype TT/TT/CC/CT or TT) was 0.34, the “absorption rate constant ka” value ([9]; in vivo) was 0.6 h⁻¹ and the “interindividual variability CVIIV(CLss/Fbio)” value ([9]; in vivo) was 36.6%. For the same compound, the “interoccasion variability CVIOV(CLss/Fbio)” value ([9]; in vivo) was 21.0%, the “apparent volume of distribution V/Fbio” value ([9]; population mean, 70 kg individual, ref Dickinson et al., 2015) was 282 L and the “apparent oral clearance CL/Fbio (CLss/Fbio)” value ([9]; population value, 70 kg individual, reference (wild-type) CYP genotype, after autoinduction, ref Dickinson et al., 2015) was 11.9 L/h. The half life ([10]; slow metabolisers) was 54.7 h, the half life ([10]; wild type) was 37.3 h and the “hill coefficient m as multiple of m(wt)” value [11] was 0.6·m(wt). The “T50, time where the clearance rate reaches half of its steady-state value” ([12]; in vivo) was 245 h and the “average clearance on the first day” value ([12]; ref Zhu et al., 2009) was 5.76 L/h.

— paper PMC6424904, “The Utility of Efavirenz-based Prophylaxis Against HIV Infection. A Systems Pharmacological Analysis” (Frontiers in Pharmacology, 2019)
